The values below come from patent US9107871B2, “LHRH—antagonists in the treatment of fertility disorders” (ZENTARIS IVP GMBH, priority 1996, dated 2015).

This assay concerns patients undergoing COS/ART. As to the kind of experiment: Phase II clinical trial of Cetrorelix in controlled ovarian stimulation/superovulation for assisted reproduction (COS/ART). Type of assay: in vivo, human. The following applies: for premature LH surge: s.c., patients undergoing COS/ART. How it is done: The results of a phase II clinical trial are shown in Table I. A total of 235 patients were treated. […] During multiple dosing, the mean days of Cetrorelix application is 6 days. 25 babies were born by the end of May 1996 (7 following multiple doses; 18 following single/dual doses). […] [table] 238 patients were treated with Cetrorelix by subcutaneous injection of Cetrorelix […]-Lyophilisat. 134 patients were treated with multiple doses and 104 patients with single or dual doses. The multiple doses are 0.25 mg/day or higher. The single dose was 3 mg or higher. […] Multiple doses were applied for 3 to a maximum of 10 days dependent on follicular development.

Where [1] appears, read: multiple dose, dose/day, phase II dose finding.

Where a SMILES comes first, the peptide text is derived from it. [ ]: non-standard residue; d: D form. dPhe(4-Cl) = N[C@H](Cc1ccc(Cl)cc1)C(=O)O; d2Nal = N[C@H](Cc1ccc2ccccc2c1)C(=O)O; dCit = NC(=O)NCCC[C@@H](N)C(=O)O; d3Pal = N[C@H](Cc1cccnc1)C(=O)O

On to `CC(=O)N[C@H](Cc1ccc2ccccc2c1)C(=O)N[C@H](Cc1ccc(Cl)cc1)C(=O)N[C@H](Cc1cccnc1)C(=O)N[C@@H](CO)C(=O)N[C@@H](Cc1ccc(O)cc1)C(=O)N[C@H](CCCNC(N)=O)C(=O)N[C@@H](CC(C)C)C(=O)N[C@@H](CCCNC(=N)N)C(=O)N1CCC[C@H]1C(=O)N[C@H](C)C(N)=O` [Cetrorelix] (Ac-[d2Nal][dPhe(4-Cl)][d3Pal]SY[dCit]LRP[dA]-NH2), for which the “premature LH surge (FIG. 1, time variation of hormonal levels)” value (FIG. 1) is given as “absolute prevention of any premature LH surge”. Further, the “pregnancies obtained (number)” value (all phase II patients, both regimens) is 71; the “pregnancies obtained (number)” value (multiple dose regimen, of 134 patients) amounted to 38; the “pregnancies obtained (number)” value (single/dual dosage regimen, of 104 patients) is 33. The “babies born (number)” value (by the end of May 1996, all patients) was 25; the “babies born (number)” value (by the end of May 1996, following multiple doses) amounted to 7; the “babies born (number)” value (by the end of May 1996, following single/dual doses) is recorded as 18; the “babies born (number)” value (following multiple doses) came to 15; the “babies born (number)” value (following single/dual doses) is given as 29. Also, under setting [1], the minimal effective dose is 0.25 min. effect. dose mg. This compound also had a no effect dose under setting [1] of 0.10 no effect. dose mg. The “premature LH surge” value by setting is: (multiple doses of 0.25 mg/day or higher) “No premature LH surge”; (single dose of 3 mg or higher) “No premature LH surge”. Besides, the “duration of effect to prevent a premature LH surge” value (single dose regimen (one single injection of 3 mg)) is given as “up to 6.5 days”.
